Assay results: ChEMBL document CHEMBL4261612, “Designing dichlorobinaphthoquinone as a prooxidative anticancer agent based on hydrogen peroxide-responsive in situ production of hydroxyl radicals” (Eur J Med Chem, 2018)
Activity calls are given as the source filed them. No cut-off for these calls is given here.

How the values were obtained:
HepG2 = assay: Cytotoxicity against human HepG2 cells assessed as reduction in cell viability after 48 hrs by MTT assay; type: functional, cell-based; settings: HepG2, 48 h
[1] = Induction of hydroxyl radicals generation assessed as DMPO/hydroxyl radical level at 50 uM in presence of H2O2 measured after 5 mins by ESR spectral analysis based EPR secondary radical spin-trapping method; type: functional
[2] = Induction of hydroxyl radicals generation assessed as methyl radical formation by measuring DMPO/CH3 radical level at 50 uM in presence of H2O2 measured after 5 mins by ESR spectral analysis based EPR secondary radical spin-trapping method; type: functional
L02 [3] = assay: Cytotoxicity against human LO2 cells assessed as reduction in cell viability after 48 hrs by MTT assay; type: cell-based; settings: for IC50: Homo sapiens, L02, 48 h
A549 [4] = assay: Induction of hydrogen peroxide-responsive hydroxyl radicals generation in human A549 cells at 7.5 uM pretreated for 3 hrs followed by 20 uM coumarin-cyanine probe 1 addition and measured after 0.5 hrs by fluorescence imaging assay; type: functional, cell-based
A549 [5] = assay: Cytotoxicity against human A549 cells assessed as reduction in cell viability after 48 hrs by MTT assay; type: functional, cell-based; settings: A549, 48 h
A549 [6] = assay: Induction of hydrogen peroxide-responsive hydroxyl radicals generation in human A549 cells at 7.5 uM pretreated for 3 hrs followed by 2 uM rhodamine nitroxide probe 3 addition and measured after 12 hrs by fluorescence imaging assay; type: functional, cell-based
A549 [7] = assay: Induction of hydrogen peroxide-responsive hydroxyl radicals generation in human A549 cells at 2.5 to 7.5 uM pretreated for 3 hrs followed by 2 uM rhodamine nitroxide probe 3 addition and measured after 12 hrs by fluorescence imaging assay; type: functional, cell-based
A549 [8] = assay: Cytotoxicity against human A549 cells assessed as induction of hydrogen peroxide-responsive hydroxyl radicals-mediated cell killing by measuring cell viability at 62.5 uM preincubated for 3 hrs followed by 50 uM H2O2 treatment for 45 mins and measured after 48 hrs by MTT assay (reference value: 75.8%); type: functional
A549 [9] = assay: Induction of hydrogen peroxide-responsive hydroxyl radicals generation in human A549 cells at 2.5 to 7.5 uM pretreated for 3 hrs followed by 20 uM coumarin-cyanine probe 1 addition and measured after 0.5 hrs by fluorescence imaging assay; type: functional, cell-based
A549 [10] = assay: Induction of hydrogen peroxide-responsive hydroxyl radicals generation in human A549 cells at 7.5 uM pretreated for 3 hrs followed by 20 uM coumarin-cyanine probe 1 addition and measured after 0.5 hrs in presence of catalase by fluorescence imaging assay; type: functional, cell-based
L02 [11] = assay: Cytotoxicity against human LO2 cells assessed as induction of hydrogen peroxide-responsive hydroxyl radicals-mediated cell killing by measuring cell viability at 62.5 uM preincubated for 3 hrs followed by 100 uM H2O2 treatment for 45 mins and measured after 48 hrs by MTT assay; type: cell-based; settings: l02, 62.5 µM
A549 [12] = assay: Cytotoxicity against human A549 cells assessed as reduction in cell viability co-treated with alpha-tocopherol after 48 hrs by MTT assay; type: functional, cell-based
L02 [13] = assay: Induction of hydrogen peroxide-responsive hydroxyl radicals generation in human LO2 cells at 7.5 uM pretreated for 3 hrs followed by 20 uM coumarin-cyanine probe 1 addition and measured after 0.5 hrs in presence of catalase by fluorescence imaging assay; type: cell-based; settings: l02, 0.5 h

SMILES	IC50 (HepG2) [µM]	Activity [1]	Activity [2]	IC50 (L02 [3]) [µM]	Activity (A549 [4])	IC50 (A549 [5]) [µM]	Activity (A549 [6])	Activity (A549 [7])	Activity (A549 [8]) [%]	Activity (A549 [9])	Activity (A549 [10])	Activity (L02 [11])	Activity (L02 [3]; human, l02, 48 h)	Activity (A549 [12])	Activity (L02 [13])
O=C1C(O)=C(C2=C(Cl)C(=O)c3ccccc3C2=O)C(=O)c2ccccc21	4.59	Active	Active	> 10	Active	4.25	Active								
O=C1C=C(C2=CC(=O)c3ccccc3C2=O)C(=O)c2ccccc21	> 10	inactive	inactive	> 10	inactive	> 10	inactive								
O=C1C(Cl)=C(C2=C(Cl)C(=O)c3ccccc3C2=O)C(=O)c2ccccc21	2.29	Active	Active	> 10		2.14		Active	52.6	Active	inactive	Non-Toxic	Non-Toxic	Active	Non-Toxic
